In this assay the target is T1, recombinant human VDR (hVDR, vitamin D receptor) (Homo sapiens, UniProt P11473).
T1 sequence (P11473 1-427): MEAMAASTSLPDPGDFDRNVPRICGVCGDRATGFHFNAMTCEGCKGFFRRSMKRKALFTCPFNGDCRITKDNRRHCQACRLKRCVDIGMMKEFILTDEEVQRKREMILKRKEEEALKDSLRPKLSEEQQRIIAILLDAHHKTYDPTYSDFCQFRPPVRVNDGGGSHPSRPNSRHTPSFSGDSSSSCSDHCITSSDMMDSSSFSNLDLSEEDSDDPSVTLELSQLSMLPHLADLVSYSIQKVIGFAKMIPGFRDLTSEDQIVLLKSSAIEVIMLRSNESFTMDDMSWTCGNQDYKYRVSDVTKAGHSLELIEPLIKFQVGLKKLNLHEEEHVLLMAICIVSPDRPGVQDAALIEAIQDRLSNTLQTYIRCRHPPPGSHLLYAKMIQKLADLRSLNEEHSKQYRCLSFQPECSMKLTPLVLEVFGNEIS
Description: fluorescence polarization competition assay (PolarScreen). Type of assay: binding. The note with it: read-out: 6. An excerpt: fluorescence polarization competition assay (PolarScreen) on recombinant human VDR (hVDR, vitamin D receptor)

Each structure is given as a SMILES string. pIC50: −log10 of the molar value.

As to `C=C1[C@H](O)C(C)=C(C#CC2=CCCc3c2cccc3[C@H](C)CCCC(C)(C)O)C[C@H]1O` [compound 6, (1R,3S,1′′R)-5-[5′-(5′′-Hydroxy-1′′,5′′-dimethylhexyl)-3′,4′-dihydro-naphthalen-1′-ylethynyl]-4-methyl-2-methylene-cyclohex-4-ene-1,3-diol], the pIC50 is 7.55.

For the origin of these results see publication PMC5666843, “Seco-B-Ring Steroidal Dienynes with Aromatic D Ring: Design, Synthesis and Biological Evaluation” (International Journal of Molecular Sciences, 2017).
